Measured values published in patent US8871812B2, “Therapeutic regimen comprising PEG-interferon, ribavirin and VX-950 for the treatment of hepatitis” (priority 2008, dated 2014).
Marks after values point to notes of the source that are not given here.

How the values were obtained:
[1] = male, human, in vivo
Method: VX-950 was examined in a randomized, double-blind, placebo-controlled single-dose escalation study. 25 healthy male volunteers were enrolled and each received multiple single doses of VX-950 (at least 7 days apart, 3 doses of VX-950 at increasing dose levels) and 1 dose of placebo.
A dose escalation scheme was used that combined dose doubling and modified Fibonacci to be aggressive in the lower dose range and conservative in the higher dose range.
A pharmacokinetics analysis was performed using the statistical moment approach.

genotype 1 hepatitis C = experiment: Phase 1b 14-day study of VX-950 alone or with peginterferon alfa-2a, followed by peginterferon alfa-2a/ribavirin: HCV RNA; format: in vivo, human
Text: (§1) This study was designed to provide information on the kinetics of HCV following treatment with VX-950 and peginterferon alfa-2a administered over 14 days.
(§2) This study randomized twenty treatment-naïve patients with chronic genotype 1 hepatitis C infection to three dosing arms (Table 6). At the completion of the 14-day study, 19 of 20 patients chose to begin peginterferon alfa-2a/ribavirin, starting within 5 days of completing the 14-day dosing period; as the other one declined to take the combination of Peg-IRN-2a and ribavirin. Clinic visits were conducted at the discretion of the investigators, after completion of the 1-week and 12-week study-mandated follow-up visits. Nineteen patients have been followed through 24 weeks after the completion of the study dosing. After discussion with the treating physicians, ten (4 in VX-950 and 6 in VX-950/peginterferon alfa-2a) patients stopped peginterferon alfa-2a/ribavirin treatment at 24 weeks.

WT HCVpro = experiment: IFN dependent gene expression / IFNβ promoter activity in Sendai virus infected Huh7 cells; format: cell-based
Text: IFNβ promoter activity decreases in response to Sendai virus stimulation in the presence of WT HCVpro.

[2] = test system: AST (aspartate aminotransferase); experiment: AST level upon administration of VX-950; format: in vivo
Text: ALT is an enzyme that is present in liver cells; when liver cells are damaged or inflamed, ALT leaks from the cell into the blood. Blood ALT levels are useful as a marker of liver inflammation or damage.

[3] = C208 Phase 2 study: safety, tolerability and discontinuations
[4] = parameters: species or system human; settings: in vivo
Text: as §1, §2

HCV genotype 1 = experiment: 14-day multiple-dose study in HCV genotype 1 subjects: HCV RNA (study VX04-950-101); format: in vivo, human
Method: Accordingly, applicants determined the changes in serum neopterin concentration as a marker of monocyte/macrophage activity during administration of an inhibitor of (HCV) NS3·4A protease. As described herein, VX-950 was administered for 14 days in a randomized, double blind, placebo controlled, multiple-dose study in 34 patients infected with HCV genotype 1. Patients received VX-950 450 mg q8h (n=10), 750 mg q8h (n=8), 1250 mg q12h (n=10), or placebo (n=6). Serum neopterin concentrations were measured by a quantitative competitive ELISA (ELItest® Neopterin, Brahms, Hennigsdorf, Germany) at pretreatment, at day 7 and 14, and at day 10 of follow-up. The lower limit of detection (LLD) was 2 nmol/I. HCV RNA was assessed at frequent intervals during the study by real-time PCR (COBAS TAQMAN™ HCV Test; linear dynamic range of 3.0 ×10^1 to 2.0 ×10^8 HCV RNA IU/ml; LLD of 10 HCV RNA IU/ml; Roche Diagnostics, Branchburg, N.J.).
All other 34 subjects completed the study.
The HCV positive subjects were tested post-treatment to monitor HCV RNA levels' return to baseline.

NS3 protease = experiment: In vitro cleavage of TRIF; format: biochemical, HCV
Text: Furthermore, NS3/4A is known to be involved in evasion of innate defenses, by e.g., TRIF-dependent mechanisms (as well as viral polyprotein processing). This immune evasion leads to viral persistence. Accordingly, a compound that inhibits both viral polyprotein processing and evasion of innate defenses is desirable.
TRIF binds to non-prime side of the NS3 protease active site. VX-950 binds to the same non-prime side of the active site as TRIF and blocks TRIP cleavage.

WT-HCV protease-SEAP = settings: SCID mice expressing WT-HCV protease-SEAP; see WO 2005/025517; cited from earlier work
[5] = 1-week F/U, on-study, Peg-IFN-2a/RBV, N = 7 / 8 / 4 per group
[6] = TVR 750 mg q8h + Peg-IFN alfa-2a + RBV (n = 40)
[7] = TVR 750 mg q8h + Peg-IFN alfa-2b + RBV (n = 42)
[8] = TVR 1125 mg q12h + Peg-IFN alfa-2a + RBV (n = 40)
[9] = TVR 1125 mg q12h + Peg-IFN alfa-2b + RBV (n = 39)

SMILES: CCC[C@H](NC(=O)[C@@H]1[C@H]2CCC[C@H]2CN1C(=O)[C@@H](NC(=O)[C@@H](NC(=O)c1cnccn1)C1CCCCC1)C(C)(C)C)C(=O)C(=O)NC1CC1 [VX-950]
- VX-950 eliminated unchanged in the urine [1]: Less than 2%
- HCV RNA below limit of detection (10 IU/mL) n (genotype 1 hepatitis C; [5]): 1 n
- HCV RNA below limit of quantitation (30 IU/mL) n (genotype 1 hepatitis C; [5]): 3 n
- HCV RNA below limit of quantitation (30 IU/mL) n (genotype 1 hepatitis C; 12-week F/U, on-study, Peg-IFN-2a/RBV, N = 7 / 8 / 4 per group): 6 n
- Patients who achieved SVR (genotype 1 hepatitis C; 14 days of VX-950 optionally with Peg-INF, followed by Peg-INF/ribavirin for additional 22 or 46 weeks): 10 of 15
- Undetectable HCV RNA at 24-week off study peg-IFN-2a/RBV treatment N (genotype 1 hepatitis C; N = 7 / 8 / 4 per group): 7* N
- Patients with undetectable HCV RNA at week 24 (genotype 1 hepatitis C; all patients who received VX-950 (alone or with peginterferon)): 15 patients
- Antiviral activity (genotype 1 hepatitis C; as a single agent or in combination with peginterferon alfa-2a, 14 days): rapid and profound antiviral activity
- Patients who achieved SVR (genotype 1 hepatitis C; at least 14 days of VX-950 (alone or with peginterferon), treated for 24 weeks in total): 7 of 10
- Patients who achieved SVR (genotype 1 hepatitis C; at least 14 days of VX-950 (alone or with peginterferon), treated for 48 weeks in total): 3 of 5
- SVR in a patient receiving a 2 week treatment of VX-950 (genotype 1 hepatitis C; in vivo): SVR was achieved
- Undetectable HCV RNA at 12 weeks follow-up after stopping peg-IFN-2a/RBV (genotype 1 hepatitis C; patients who stopped peg-IFN-2a/RBV at week 24): 2 of 4
- IFN dependent gene expression (WT HCVpro; Sendai virus infected Huh7 cells): restores IFN dependent gene expression
- IFNβ promoter activation (WT HCVpro; Sendai virus stimulation in the presence of WT HCVpro): overcomes the WT HCVpro mediated suppression of IFNβ promoter activation
- AST levels [2]: decreased
- AE: Anemia [3, 6]: 18 (45) n (%)
- AE: Asthenia [3, 6]: 11 (28) n (%)
- AE: Decreased appetite [3, 6]: 8 (20) n (%)
- AE: Diarrhea [3, 6]: 10 (25) n (%)
- AE: Fatigue [3, 6]: 15 (38) n (%)
- AE: Headache [3, 6]: 13 (33) n (%)
- AE: Influenza-like illness [3, 6]: 15 (38) n (%)
- AE: Nausea [3, 6]: 18 (45) n (%)
- AE: Pruritus [3, 6]: 16 (40) n (%)
- AE: Pyrexia [3, 6]: 8 (20) n (%)
- AE: Rash [3, 6]: 26 (65) n (%)
- AE: Vomiting [3, 6]: 7 (18) n (%)
- AE: Anemia [3, 7]: 14 (33) n (%)
- AE: Asthenia [3, 7]: 16 (38) n (%)
- AE: Decreased appetite [3, 7]: 4 (10) n (%)
- AE: Diarrhea [3, 7]: 9 (21) n (%)
- AE: Fatigue [3, 7]: 15 (36) n (%)
- AE: Headache [3, 7]: 18 (43) n (%)
- AE: Influenza-like illness [3, 7]: 19 (45) n (%)
- AE: Nausea [3, 7]: 14 (33) n (%)
- AE: Pruritus [3, 7]: 21 (50) n (%)
- AE: Pyrexia [3, 7]: 14 (33) n (%)
- AE: Rash [3, 7]: 15 (36) n (%)
- AE: Vomiting [3, 7]: 5 (12) n (%)
- AE: Anemia [3, 8]: 14 (35) n (%)
- AE: Asthenia [3, 8]: 7 (18) n (%)
- AE: Decreased appetite [3, 8]: 6 (15) n (%)
- AE: Diarrhea [3, 8]: 12 (30) n (%)
- AE: Fatigue [3, 8]: 14 (35) n (%)
- AE: Headache [3, 8]: 13 (33) n (%)
- AE: Influenza-like illness [3, 8]: 11 (28) n (%)
- AE: Nausea [3, 8]: 16 (40) n (%)
- AE: Pruritus [3, 8]: 19 (48) n (%)
- AE: Pyrexia [3, 8]: 8 (20) n (%)
- AE: Rash [3, 8]: 16 (40) n (%)
- AE: Vomiting [3, 8]: 7 (18) n (%)
- AE: Anemia [3, 9]: 19 (49) n (%)
- AE: Asthenia [3, 9]: 14 (36) n (%)
- AE: Decreased appetite [3, 9]: 15 (39) n (%)
- AE: Diarrhea [3, 9]: 13 (33) n (%)
- AE: Fatigue [3, 9]: 15 (39) n (%)
- AE: Headache [3, 9]: 16 (41) n (%)
- AE: Influenza-like illness [3, 9]: 20 (51) n (%)
- AE: Nausea [3, 9]: 22 (56) n (%)
- AE: Pruritus [3, 9]: 22 (56) n (%)
- AE: Pyrexia [3, 9]: 11 (28) n (%)
- AE: Rash [3, 9]: 14 (36) n (%)
- AE: Vomiting [3, 9]: 12 (31) n (%)
- electrocardiographic or vital signs parameters ([3]; all T/PR arms): No relevant changes
- Tolerability [4]: well tolerated
- Subjects with maximum change from baseline in HCV RNA >−1 to <0 log10 IU/mL (HCV genotype 1; 450 mg q8h, 14 days (n = 10)): 0 n (%)
- Subjects with maximum change from baseline in HCV RNA >−2 to ≦−1 log10 IU/mL (HCV genotype 1; 450 mg q8h, 14 days (n = 10)): 0 n (%)
- Subjects with maximum change from baseline in HCV RNA >−3 to ≦−2 log10 IU/mL (HCV genotype 1; 450 mg q8h, 14 days (n = 10)): 1 (10.0) n (%)
- Subjects with maximum change from baseline in HCV RNA >−4 to ≦−3 log10 IU/mL (HCV genotype 1; 450 mg q8h, 14 days (n = 10)): 7 (70.0) n (%)
- Subjects with maximum change from baseline in HCV RNA >−5 to ≦−4 log10 IU/mL (HCV genotype 1; 450 mg q8h, 14 days (n = 10)): 0 n (%)
- Subjects with maximum change from baseline in HCV RNA ≧−5 log10 IU/mL (HCV genotype 1; 450 mg q8h, 14 days (n = 10)): 2 (20.0) n (%)
- Subjects with maximum change from baseline in HCV RNA >−1 to <0 log10 IU/mL (HCV genotype 1; 750 mg q8h, 14 days (n = 8)): 0 n (%)
- Subjects with maximum change from baseline in HCV RNA >−2 to ≦−1 log10 IU/mL (HCV genotype 1; 750 mg q8h, 14 days (n = 8)): 0 n (%)
- Subjects with maximum change from baseline in HCV RNA >−3 to ≦−2 log10 IU/mL (HCV genotype 1; 750 mg q8h, 14 days (n = 8)): 0 n (%)
- Subjects with maximum change from baseline in HCV RNA >−4 to ≦−3 log10 IU/mL (HCV genotype 1; 750 mg q8h, 14 days (n = 8)): 3 (37.5) n (%)
- Subjects with maximum change from baseline in HCV RNA >−5 to ≦−4 log10 IU/mL (HCV genotype 1; 750 mg q8h, 14 days (n = 8)): 3 (37.5) n (%)
- Subjects with maximum change from baseline in HCV RNA ≧−5 log10 IU/mL (HCV genotype 1; 750 mg q8h, 14 days (n = 8)): 2 (25.0) n (%)
- Subjects with maximum change from baseline in HCV RNA >−1 to <0 log10 IU/mL (HCV genotype 1; 1250 mg q12h, 14 days (n = 10)): 0 n (%)
- Subjects with maximum change from baseline in HCV RNA >−2 to ≦−1 log10 IU/mL (HCV genotype 1; 1250 mg q12h, 14 days (n = 10)): 0 n (%)
- Subjects with maximum change from baseline in HCV RNA >−3 to ≦−2 log10 IU/mL (HCV genotype 1; 1250 mg q12h, 14 days (n = 10)): 1 (10.0) n (%)
- Subjects with maximum change from baseline in HCV RNA >−4 to ≦−3 log10 IU/mL (HCV genotype 1; 1250 mg q12h, 14 days (n = 10)): 9 (90.0) n (%)
- Subjects with maximum change from baseline in HCV RNA >−5 to ≦−4 log10 IU/mL (HCV genotype 1; 1250 mg q12h, 14 days (n = 10)): 0 n (%)
- Subjects with maximum change from baseline in HCV RNA ≧−5 log10 IU/mL (HCV genotype 1; 1250 mg q12h, 14 days (n = 10)): 0 n (%)
- Subjects with a 3 log10 reduction in HCV-RNA (HCV genotype 1; within the first three days of treatment, of the 28 subjects receiving VX-950): 26
- cleavage of TRIF (NS3 protease): inhibits in vitro cleavage of TRIF
- Effect on elevated ALT levels (WT-HCV protease-SEAP): ameliorates elevated ALT levels
